Experimental data from patent publication US20250388589A1, “TRICYCLIC HETEROCYCLIC DERIVATIVES, COMPOSITIONS AND USES THEREOF” (Danatlas Pharmaceuticals Co., Ltd., priority 2022, published 2025).

Experiments:
[1] = tested on: Kuramochi cell line; assay: Cell Viability Assay (Cell Titer-Glo, 7 days); format: cell-based; settings: 168 h, Kuramochi cells, 7 days incubation, read-out: PARG Cell viability (IC50)
Outline: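 IC50 from a four-parameter fit of CellTiter-Glo luminescence, scaled between DMSO-treated (high) and medium-only (low) wells. Kuramochi cells (400/well, RPMI/10% FBS) exposed 7 days at 37 °C to 9 concentrations, 3-fold steps, in duplicate.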

[2] = molecular target: hPARG (C-terminal His6-tag) (Homo sapiens (Human), UniProt Q86W56); assay: PARG Enzymatic Activity Assay (HTRF); format: biochemical; settings: hPARG 65 pM final, biotinylated-NAD ribosylated PARP1 8 nM final
hPARG (C-terminal His6-tag), sequence (Q86W56 whole entry): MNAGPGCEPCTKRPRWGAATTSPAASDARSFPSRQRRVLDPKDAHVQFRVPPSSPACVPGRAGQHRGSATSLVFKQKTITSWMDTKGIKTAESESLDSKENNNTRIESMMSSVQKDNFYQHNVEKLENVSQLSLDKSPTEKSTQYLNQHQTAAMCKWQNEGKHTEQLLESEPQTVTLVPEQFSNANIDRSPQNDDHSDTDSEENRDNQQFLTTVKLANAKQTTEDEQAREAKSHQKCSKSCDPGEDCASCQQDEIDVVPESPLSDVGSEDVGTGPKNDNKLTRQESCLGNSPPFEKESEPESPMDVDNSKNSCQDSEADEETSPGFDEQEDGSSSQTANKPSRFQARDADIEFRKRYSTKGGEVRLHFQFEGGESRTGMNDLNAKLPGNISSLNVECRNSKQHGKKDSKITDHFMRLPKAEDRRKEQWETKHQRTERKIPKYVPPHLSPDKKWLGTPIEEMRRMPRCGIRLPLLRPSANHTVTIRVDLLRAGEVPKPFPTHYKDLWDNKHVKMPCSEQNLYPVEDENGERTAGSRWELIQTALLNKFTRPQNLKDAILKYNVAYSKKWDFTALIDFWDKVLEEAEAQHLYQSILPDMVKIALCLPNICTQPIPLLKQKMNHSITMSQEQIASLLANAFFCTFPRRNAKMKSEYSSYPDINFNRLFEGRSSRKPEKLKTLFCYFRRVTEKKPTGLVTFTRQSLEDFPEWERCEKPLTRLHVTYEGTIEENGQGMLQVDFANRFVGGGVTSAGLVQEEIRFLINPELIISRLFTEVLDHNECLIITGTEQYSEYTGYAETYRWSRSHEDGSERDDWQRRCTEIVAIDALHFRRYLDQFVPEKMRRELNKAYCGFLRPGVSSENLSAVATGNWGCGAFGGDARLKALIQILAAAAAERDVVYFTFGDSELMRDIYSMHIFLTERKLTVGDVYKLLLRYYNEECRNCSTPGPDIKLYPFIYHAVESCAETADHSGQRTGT
Outline: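 Readout is time-resolved fluorescence at 620 and 665 nm after 60 min RT detection with streptavidin-Eu cryptate and anti-6HIS-XL665; IC50 by 4-parameter fit, 1% DMSO and no-enzyme controls. Reaction: 8 nM final ribosylated PARP1 substrate for 10 min RT, following 60 min RT enzyme (65 pM)–compound preincubation in Tris pH 7.4 buffer with EDTA, DTT, KCl.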

| Compound | IC50 [2] [nM] | IC50 [1] [nM] |
| --- | --- | --- |
| Cc1ccc(C(=O)N2CCN(c3ncnc4c3c3ccc(S(=O)(=O)NC5(C#N)CC5)cc3n4-c3nnc(C(F)F)s3)CC2)cn1 [Example 27, N-(1-Cyanocyclopropyl)-9-(5-(difluoromethyl)-1,3,4-thiadiazol-2-yl)-4-(4-(6-methylnicotinoyl)piperazin-1-yl)-9H-pyrimido[4,5-b]indole-7-sulfonamide] | < 100 | 100 to 1000 |
| CC(C)N1CCN(c2ncnc3c2c2ccc(S(=O)(=O)NC4(C#N)CC4)cc2n3-c2nnc(C(F)F)s2)CC1=O [Example 180, N-(1-Cyanocyclopropyl)-9-(5-(difluoromethyl)-1,3,4-thiadiazol-2-yl)-4-(4-isopropyl-3-oxopiperazin-1-yl)-9H-pyrimido[4,5-b]indole-7-sulfonamide] | < 100 | < 100 |
| C[C@@H]1CN(C(=O)N(C)C)CCN1c1ncnc2c1c1ccc(S(=O)(=O)NC3(C#N)CC3)cc1n2-c1nnc(C(F)F)s1 [Example 73, (R)-4-(7-(N-(1-Cyanocyclopropyl)sulfamoyl)-9-(5-(difluoromethyl)-1,3,4-thiadiazol-2-yl)-9H-pyrimido[4,5-b]indol-4-yl)-N,N,3-trimethylpiperazine-1-carboxamide] | < 100 | < 100 |
| N#CC1(NS(=O)(=O)c2ccc3c4c(C5CCN(C(=O)[C@@H]6CCOC6)CC5)ncnc4n(-c4nnc(C(F)F)s4)c3c2)CC1 [Example 116, (R)-N-(1-cyanocyclopropyl)-9-(5-(difluoromethyl)-1,3,4-thiadiazol-2-yl)-4-(1-(tetrahydrofuran-3-carbonyl)piperidin-4-yl)-9H-pyrimido[4,5-b]indole-7-sulfonamide] | < 100 | < 100 |
| C[C@@H]1CN(c2ncnc3c2c2ccc(S(=O)(=O)NC4(C#N)CC4)cc2n3-c2nnc(C(F)F)s2)C[C@H](C)N1C(=O)C1CC1 [Example 29, N-(1-Cyanocyclopropyl)-4-((3S,5R)-4-(cyclopropanecarbonyl)-3,5-dimethylpiperazin-1-yl)-9-(5-(difluoromethyl)-1,3,4-thiadiazol-2-yl)-9H-pyrimido[4,5-b]indole-7-sulfonamide] | < 100 | < 100 |
| CN(C)C(=O)N1CC=C(c2ncnc3c2c2ccc(S(=O)(=O)NC4(C)CC4)cc2n3-c2nnc(C(F)F)s2)CC1 [Example 152, 4-(9-(5-(Difluoromethyl)-1,3,4-thiadiazol-2-yl)-7-(N-(1-methylcyclopropyl)sulfamoyl)-9H-pyrimido[4,5-b]indol-4-yl)-N,N-dimethyl-3,6-dihydropyridine-1(2H)-carboxamide] | < 100 | < 100 |
| C[C@H](O)C(=O)N1CCC(c2ncnc3c2c2ccc(S(=O)(=O)NC4(C#N)CC4)cc2n3-c2nnc(C(F)F)s2)CC1 [Example 106, (S)-N-(1-Cyanocyclopropyl)-9-(5-(difluoromethyl)-1,3,4-thiadiazol-2-yl)-4-(1-(2-hydroxypropanoyl)piperidin-4-yl)-9H-pyrimido[4,5-b]indole-7-sulfonamide] | < 100 | < 100 |
| N#CC1(NS(=O)(=O)c2ccc3c4c(N5CCN6C(=O)COC[C@H]6C5)ncnc4n(-c4nnc(C(F)F)s4)c3c2)CC1 [Example 168, (R)—N-(1-Cyanocyclopropyl)-9-(5-(difluoromethyl)-1,3,4-thiadiazol-2-yl)-4-(4-oxohexahydropyrazino[2,1-c][1,4]oxazin-8(1H)-yl)-9H-pyrimido[4,5-b]indole-7-sulfonamide] | < 100 | < 100 |
| CN(C)C(=O)N1CCC(c2ncnc3c2c2ccc(S(=O)(=O)NC4(C#N)CC4)cc2n3-c2nnc(C(F)F)s2)CC1 [Example 88, 4-(7-(N-(1-Cyanocyclopropyl)sulfamoyl)-9-(5-(difluoromethyl)-1,3,4-thiadiazol-2-yl)-9H-pyrimido[4,5-b]indol-4-yl)-N,N-dimethylpiperidine-1-carboxamide] | < 100 | < 100 |
| N#CC1(NS(=O)(=O)c2ccc3c4c(N5CCC(F)(F)CC5)ncnc4n(-c4nnc(C(F)F)s4)c3c2)CC1 [Example 52, N-(1-Cyanocyclopropyl)-9-(5-(difluoromethyl)-1,3,4-thiadiazol-2-yl)-4-(4,4-difluoropiperidin-1-yl)-9H-pyrimido[4,5-b]indole-7-sulfonamide] | 100 to 1000 | 100 to 1000 |
| N#CC1(NS(=O)(=O)c2ccc3c4c(N5CCN(C(=O)C6(F)CCC6)CC5)ncnc4n(-c4nnc(C(F)F)s4)c3c2)CC1 [Example 68, N-(1-Cyanocyclopropyl)-9-(5-(difluoromethyl)-1,3,4-thiadiazol-2-yl)-4-(4-(1-fluorocyclobutane-1-carbonyl)piperazin-1-yl)-9H-pyrimido[4,5-b]indole-7-sulfonamide] | < 100 | 100 to 1000 |

Further lines, with some results ahead:

| IC50 [2] [nM] | Compound | IC50 [1] [nM] |
| --- | --- | --- |
| < 100 | C[C@H]1CN(c2ncnc3c2c2ccc(S(=O)(=O)NC4(C)CC4)cc2n3-c2nnc(C(F)F)s2)CCO1 [Example 99, (S)-9-(5-(Difluoromethyl)-1,3,4-thiadiazol-2-yl)-N-(1-methylcyclopropyl)-4-(2-methylmorpholino)-9H-pyrimido[4,5-b]indole-7-sulfonamide] | < 100 |
| < 100 | N#CC1(NS(=O)(=O)c2ccc3c4c(C5=CCC(O)CC5)ncnc4n(-c4nnc(C(F)F)s4)c3c2)CC1 (stereo not shown) [Example 84, N-(1-Cyanocyclopropyl)-9-(5-(difluoromethyl)-1,3,4-thiadiazol-2-yl)-4-(4-hydroxycyclohex-1-en-1-yl)-9H-pyrimido[4,5-b]indole-7-sulfonamide] | < 100 |
| < 100 | N#CC1(NS(=O)(=O)c2ccc3c4c(N5CCC(N6CCOCC6)[C@@H](F)C5)ncnc4n(-c4nnc(C(F)F)s4)c3c2)CC1 (stereo partly drawn) [Example 209, N-(1-Cyanocyclopropyl)-9-(5-(difluoromethyl)-1,3,4-thiadiazol-2-yl)-4-((3S)-3-fluoro-4-morpholinopiperidin-1-yl)-9H-pyrimido[4,5-b]indole-7-sulfonamide] | < 100 |
| < 100 | CC(C)C(=O)N1CCC(c2ncnc3c2c2cc(F)c(S(=O)(=O)NC4(C)CC4)cc2n3-c2nnc(C(F)F)s2)CC1 [Example 148, 9-(5-(Difluoromethyl)-1,3,4-thiadiazol-2-yl)-6-fluoro-4-(1-isobutyrylpiperidin-4-yl)-N-(1-methylcyclopropyl)-9H-pyrimido[4,5-b]indole-7-sulfonamide] | < 100 |
| < 100 | C[C@H]1CC(c2ncnc3c2c2ccc(S(=O)(=O)NC4(C#N)CC4)cc2n3-c2nnc(C(F)F)s2)CCN1 (stereo partly drawn) [Example 150, N-(1-Cyanocyclopropyl)-9-(5-(difluoromethyl)-1,3,4-thiadiazol-2-yl)-4-((2S)-2-methylpiperidin-4-yl)-9H-pyrimido[4,5-b]indole-7-sulfonamide] | 100 to 1000 |
| < 100 | CC1(NS(=O)(=O)c2ccc3c4c(C5CCNCC5)ncnc4n(-c4nnc(C(F)F)s4)c3c2)CC1 [Example 93, 9-(5-(Difluoromethyl)-1,3,4-thiadiazol-2-yl)-N-(1-methylcyclopropyl)-4-(piperidin-4-yl)-9H-pyrimido[4,5-b]indole-7-sulfonamide] | < 100 |
| < 100 | CN(C)C(=O)N1CCC(c2ncnc3c2c2cc(F)c(S(=O)(=O)NC4(C#N)CC4)cc2n3-c2nnc(C(F)F)s2)CC1 [Example 89, 4-(7-(N-(1-Cyanocyclopropyl)sulfamoyl)-9-(5-(difluoromethyl)-1,3,4-thiadiazol-2-yl)-6-fluoro-9H-pyrimido[4,5-b]indol-4-yl)-N,N-dimethylpiperidine-1-carboxamide] | < 100 |
| < 100 | N#CC1(NS(=O)(=O)c2ccc3c4c(N5CCn6c(nnc6C(F)(F)F)C5)ncnc4n(-c4nnc(C(F)F)s4)c3c2)CC1 [Example 156, N-(1-cyanocyclopropyl)-9-(5-(difluoromethyl)-1,3,4-thiadiazol-2-yl)-4-(3-(trifluoromethyl)-5,6-dihydro-[1,2,4]triazolo[4,3-a]pyrazin-7(8H)-yl)-9H-pyrimido[4,5-b]indole-7-sulfonamide] | < 100 |
| < 100 | CC(C)(C)OC(=O)N1CCC(c2ncnc3c2c2ccc(S(=O)(=O)NC4(C#N)CC4)cc2n3-c2nnc(C(F)F)s2)CC1 [Example 86, tert-butyl 4-(7-(N-(1-cyanocyclopropyl)sulfamoyl)-9-(5-(difluoromethyl)-1,3,4-thiadiazol-2-yl)-9H-pyrimido[4,5-b]indol-4-yl)piperidine-1-carboxylate] | 100 to 1000 |
| < 100 | CN1CCN(c2ccnc3c2c2ccc(S(=O)(=O)NC4(C#N)CC4)cc2n3-c2nnc(C(F)F)s2)CC1 [Example 198, N-(1-Cyanocyclopropyl)-9-(5-(difluoromethyl)-1,3,4-thiadiazol-2-yl)-4-(4-methylpiperazin-1-yl)-9H-pyrido[2,3-b]indole-7-sulfonamide] | < 100 |
| < 100 | CC(C)C(=O)N1CCC(c2ncnc3c2c2ccc(S(=O)(=O)NC4(C#N)CC4)cc2n3-c2nnc(C(F)F)s2)CC1 [Example 76, N-(1-Cyanocyclopropyl)-9-(5-(difluoromethyl)-1,3,4-thiadiazol-2-yl)-4-(1-isobutyrylpiperidin-4-yl)-9H-pyrimido[4,5-b]indole-7-sulfonamide] | < 100 |
| < 100 | N#CC1(NS(=O)(=O)c2ccc3c4c(N5CCN(C(=O)N6CCC6)CC5)ncnc4n(-c4nnc(C(F)F)s4)c3c2)CC1 [Example 63, 4-(4-(Azetidine-1-carbonyl)piperazin-1-yl)-N-(1-cyanocyclopropyl)-9-(5-(difluoromethyl)-1,3,4-thiadiazol-2-yl)-9H-pyrimido[4,5-b]indole-7-sulfonamide] | < 100 |
